Experimental data from ChEMBL document CHEMBL1143368, “The translocator protein (18 kDa): central nervous system disease and drug design” (J Med Chem, 2009).
pKi: −log10 of the molar value.

What was measured:
[1] = biological target: Translocator protein (Homo sapiens) (UniProt P30536); assay: Binding affinity to TSPO in parietal lobe of healthy human; assay type: tissue-based; details: tested as the 125I-labelled form
[2] = biological target: Translocator protein (Homo sapiens) (UniProt P30536); assay: Binding affinity to TSPO in parietal lobe of patient with Alzheimer's disease; details: tested as the 125I-labelled form
[3] = biological target: Translocator protein (Homo sapiens) (UniProt P30536); assay: Binding affinity to TSPO in temporal lobe of healthy human; assay type: tissue-based; details: tested as the 125I-labelled form
[4] = biological target: Translocator protein (Homo sapiens) (UniProt P30536); assay: Binding affinity to TSPO in white matter of patient with Alzheimer's disease; assay type: tissue-based; details: tested as the 125I-labelled form
[5] = biological target: Translocator protein (Homo sapiens) (UniProt P30536); assay: Binding affinity to TSPO in white matter of healthy human; assay type: tissue-based; details: tested as the 125I-labelled form
[6] = biological target: Translocator protein (Homo sapiens) (UniProt P30536); assay: Binding affinity to TSPO in temporal lobe of patient with Alzheimer's disease; details: tested as the 125I-labelled form
Rattus norvegicus [7] = species on record: Rattus norvegicus; assay: Displacement of [3H]diazepam from central benzodiazepine receptor in Wistar rat […] by scintillation counting
[8] = biological target: Translocator protein (Homo sapiens) (UniProt P30536); assay: Displacement of [3H]Ro5-4864 from TSPO in putamen of healthy human; details: tested as the 3H-labelled form
[9] = biological target: Translocator protein (Mus musculus) (UniProt P50637); assay: Binding affinity to mitochondrial TSPO in mouse MA10 cells in presence of human chorionic gonadotropin; assay type: cell-based
[10] = biological target: Translocator protein (Homo sapiens) (UniProt P30536); assay: Displacement of [3H]Ro5-4864 from TSPO
U-937 [11] = assay: Antiapoptotic activity against TNF-alpha-induced apoptosis in human U937 cells; assay type: functional
[12] = biological target: Translocator protein (Homo sapiens) (UniProt P30536); assay: Displacement of [3H]Ro5-4864 from TSPO in caudate nucleus of patient with Huntington's disease; details: tested as the 3H-labelled form
Rattus norvegicus [13] = species on record: Rattus norvegicus; assay: Displacement of [3H]Ro5-4864 from GABAA receptor in rat brain membrane; assay type: cell membranes
U-937 [14] = assay: Induction of apoptosis in human U937 cells; assay type: functional
Translocator protein = Translocator protein (Rattus norvegicus, UniProt P16257); assay: Displacement of [3H]PK11195 from TSPO in rat cortex
Translocator protein, sequence (P16257 whole entry, looked up): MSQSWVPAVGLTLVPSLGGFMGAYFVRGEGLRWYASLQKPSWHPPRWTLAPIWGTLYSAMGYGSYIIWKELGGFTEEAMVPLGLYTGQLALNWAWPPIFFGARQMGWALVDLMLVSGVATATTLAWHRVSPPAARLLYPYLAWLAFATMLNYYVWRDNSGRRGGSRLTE

Translocator protein (Homo sapiens), sequence (P30536 whole entry): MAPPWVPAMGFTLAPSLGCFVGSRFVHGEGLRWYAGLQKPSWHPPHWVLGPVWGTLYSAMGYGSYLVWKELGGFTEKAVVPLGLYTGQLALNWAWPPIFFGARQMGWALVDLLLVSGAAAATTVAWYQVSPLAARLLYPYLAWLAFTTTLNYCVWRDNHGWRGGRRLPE
Translocator protein (Mus musculus), sequence (P50637 whole entry, looked up): as the sequence (P16257 whole entry, looked up) above, with S2P, Q3E, I67V, E77D, V110A, M113L, M149V, T168P counted along it

COc1ccc(OC)c(CN(C(C)=O)c2cc(I)ccc2Oc2ccccc2)c1
Bmax [1]: 0.32 fmol/mg
Bmax [2]: 1.26 fmol/mg
Bmax [3]: 0.22 fmol/mg
Bmax [4]: 1.12 fmol/mg
Bmax [5]: 0.24 fmol/mg
Bmax [6]: 1.02 fmol/mg

CN1C(=O)CN=C(c2ccccc2)c2cc(Cl)ccc21
Activity (Rattus norvegicus [7]): 40 nM

CN1C(=O)CN=C(c2ccc(Cl)cc2)c2cc(Cl)ccc21 [RO-54864]
Bmax [8]: 40.7 fmol/mg
Activity [9]: 0.2 nM
Activity [10]: 7.3 nM
Activity (U-937 [11]): 10 µM
Bmax [12]: 61.7 fmol/mg
Activity (Rattus norvegicus [13]): 163 µM
Activity (U-937 [14]): >10 µM

CCCCCCN(CCCCCC)C(=O)Cc1c(-c2ccc(F)cc2)[nH]c2ccccc12
pKi (Translocator protein): 8.30

CC(=O)N(Cc1ccccc1OC(C)C)c1ccc(Cl)cc1Oc1ccccc1
pKi (Translocator protein): 9.04
